Calls of active or inactive are those of the source. No cut-off for these calls is given here.
Experiments:
Ribonuclease pancreatic = biological target: T1, Ribonuclease pancreatic (Bos taurus, UniProt P61823); assay: Competitive inhibition of bovine pancreatic RNase A ribonucleolytic activity of by Dixon plot analysis
T1 sequence (P61823 whole entry): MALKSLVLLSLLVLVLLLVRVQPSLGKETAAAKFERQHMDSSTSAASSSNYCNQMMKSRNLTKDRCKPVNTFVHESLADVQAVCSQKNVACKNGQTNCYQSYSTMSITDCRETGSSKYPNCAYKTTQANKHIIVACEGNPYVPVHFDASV

[1] = biological target: T2, Ribonuclease pancreatic (Bos taurus) (UniProt P61823); assay: Inhibition of bovine pancreatic RNase A ribonucleolytic activity of RNase A at 2.5 mM after 2 hrs by precipitation assay
T2 sequence (whole entry): T1 sequence (P61823 whole entry)

[2] = biological target: T2, Ribonuclease pancreatic (Bos taurus); assay: Inhibition of bovine pancreatic RNase A assessed as degradation of tRNA at 1.9 mM after 6 hrs using ethidium bromide staining by agarose gel-based assay

| SMILES | Ki (Ribonuclease pancreatic) [µM] | inhibition [1] [%] | inhibition [2] |
| --- | --- | --- | --- |
| Nc1ncnc2c1ncn2[C@@H]1O[C@H](C(=O)O)[C@@H](O)[C@H]1O [5'-CARBOXY ADENOSINE] | 67 | 32.2 | Active |
| Cc1cn([C@H]2C[C@H](NC(=O)C(N)CC(=O)O)[C@@H](CO)O2)c(=O)[nH]c1=O (some centres undefined) | 37 | 47.6 | Active |
| Cc1cn([C@H]2C[C@H](O)[C@@H](C(=O)O)O2)c(=O)[nH]c1=O [5'-CARBOXY THYMIDINE] | 193 | 23.5 | Active |

— ChEMBL document CHEMBL1287743, “Comparative inhibitory activity of 3'- and 5'-functionalized nucleosides on ribonuclease A” (Bioorg Med Chem, 2010)
